Reference: publication PMC8156206, “Novel N,N′-Disubstituted Selenoureas as Potential Antioxidant and Cytotoxic Agents” (Antioxidants, 2021)

Experiments:
[1] = test system: HTB-54 cells (lung adenocarcinoma); experiment: MTT cell viability assay, HTB-54; assay type: cell-based, human
In short: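 Cells at 1 × 10^4/well grown 24 h, then treated 48 h with selenourea at 10 and 50 µM (selected compounds 0.1–100 µM), DMSO as negative control. MTT added 150 min before end, formazan read at 570 nm; IC50 by nonlinear fit, ≥3 independent experiments in triplicate.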

HCT-116 cells (colon) = experiment: MTT cell viability assay, HCT-116; assay type: cell-based; conditions: Homo sapiens, HCT-116; 48 h, MTT, mean ± SD; read-out: IC50 HCT-116 (colon)
Experimental: Cell lines were purchased from the American Type Culture Collection (ATCC). MCF-7, HTB-54, BEAS-2B and 184B5 cell lines were grown in RPMI 1640 medium (Gibco) supplemented with 10% fetal bovine serum (FBS; Gibco), 100 units/mL penicillin, and […] streptomycin (Gibco). HT-29 and HCT-116 cell lines was cultured in McCoy’s 5A (Gibco), 10% FBS, 100 units/mL penicillin, and 100 μg/mL streptomycin. Cells were maintained at 37 °C and 5% CO2. Culture medium was replaced every three days.
(§1) A cell viability assay of each compound was carried out using an MTT assay. Each selenourea was dissolved in dimethyl sulfoxide (DMSO) at a concentration of 0.01 M. Serial dilutions were prepared with non-supplemented culture medium. Cytotoxic activity of each selenourea was determined at two different concentrations (10 and 50 µM) in MCF-7, HTB-54, and HT-29 cells. In addition, selected compounds were tested at seven different concentrations (0.1, 1, 5, 10, 25, 50, 100 µM) on MCF-7, HT-29, HCT-116, HTB-54, 184B5, and BEAS-2B cells. The number of passages before defrosting the cells was 3, and they were kept under culture up to a maximum of 15.
(§2) Briefly, 1 × 10^4 cells/well were grown in 96-well plates for 24 h. Then, these cells were incubated with either DMSO (negative control) at 5 µM or a different concentration of each tested selenourea for 48 h. A volume of 20 µL of MTT was added 150 min before the termination point to measure cellular viability. After this time, culture medium was removed. The resultant formazan crystals were dissolved in 50 µL of DMSO, and absorbance was measured at 570 nm. Results are expressed as IC50, the half maximal inhibitory concentration. This value was calculated using GraphPad Prism 7 software by nonlinear curve fitting. Furthermore, the selectivity index (SI) was calculated as the ratio of the IC50 values determined for the non-malignant and the tumoral cells (IC50 (184B5)/IC50 (MCF-7) or (IC50 (BEAS-2B)/IC50 (HTB-54). Data were obtained from at least three independent experiments performed in triplicates.

[2] = test system: MCF-7, HTB-54, HT-29 and HCT-116 cancer cell lines; experiment: MTT assay, panel of four cancer cell lines; assay type: cell-based; conditions: MCF-7, HTB-54, HT-29, HCT-116, read-out: IC50 against the four cancer cell lines tested (all the cell lines)
Experimental: as §1, §2
Those derivatives that reduced the growth of the cell lines below 50% at 10 µM in at least one cell line were selected for being evaluated at five concentrations between […] and 100 µM. Ten compounds (1d, 1e, 2a, 2d, 3a, 6a, 6b, 6c, 6d, and 6e) passed this threshold and four of them (1e, 6c, 6d and 6e) in all three cancer cell lines. The data are expressed as IC50 (mean ± SD) in a panel of four cancer cell lines (MCF-7, HTB-54, HT-29, and HCT-116), and are shown in Table 1. Cisplatin was used as a standard drug. […] Additionally, reported IC50 values of a well-known antitumor selenocompound, i.e., sodium selenite (Na2SeO3), were used as reference for comparision with the selected selenoureas.

BT-549 (breast cancer) = experiment: cells; assay type: cell-based
From the text: (§3) The dose–response was also studied in the same 60 cancer cell lines, with outstanding results. […] Table 2 summarizes the GI50, TGI, and LC50 values of representative cell lines. Full data mean GI50 graphs are provided in the Supplementary Materials.

COLO-205 (colon cancer) = experiment: cells; assay type: cell-based
From the text: as §3

HCT-116 (colon cancer) = experiment: cells; assay type: cell-based
From the text: as §3

M14 (melanoma) = experiment: cells; assay type: cell-based
From the text: as §3

[3] = test system: MDA-MB-231/ATCC (breast cancer); experiment: cells; assay type: cell-based
From the text: as §3

[4] = test system: MDA-MB-468 (breast cancer); experiment: cells; assay type: cell-based
From the text: as §3

NCI-60 cell line panel = experiment: cells; assay type: cell-based
From the text: as §3

[5] = test system: OVACAR-3 (ovarian cancer); experiment: cells; assay type: cell-based
From the text: as §3

SF-593 (CNS cancer) = experiment: cells; assay type: cell-based
From the text: as §3

SK-MEL-5 (melanoma) = experiment: cells; assay type: cell-based
From the text: as §3

UO-31 (renal cancer) = experiment: cells; assay type: cell-based
From the text: as §3

Question: Which IC50 ([1]; Homo sapiens, HTB-54, 48 h, MTT, mean ± SD, read-out: IC50 HTB-54 (lung)) does the source give for `COc1ccc(NC(=[Se])NC23CC4CC(CC(C4)C2)C3)cc1` [Compound 6c, N´-adamantyl-N-(4-methoxyphenyl)selenourea] here?
Answer: The IC50 was 5.09 ± 0.28 µM.

Question: And the viability at 10 µM ([1]; Homo sapiens, HTB-54, 10 µM, 48 h, MTT, read-out: cell viability, percentage of live cells)?
Answer: The viability at 10 µM was 33.1%.

Question: And the viability at 50 µM ([1]; Homo sapiens, HTB-54, 50 µM, 48 h, MTT, read-out: cell viability, percentage of live cells)?
Answer: The viability at 50 µM was 30.9%.

Question: And the “SI (selectivity index) lung” value ([1]; IC50 (BEAS-2B)/IC50 (HTB-54))?
Answer: The value was 0.93.

Question: What about the IC50 (HCT-116 cells (colon)) of the same molecule?
Answer: The IC50 was 3.6 ± 0.74 µM.

Question: What about the IC50 [2] of the same molecule?
Answer: The IC50 was less than 10 µM.

Question: What about the TGI (BT-549 (breast cancer); BT-549, NCI-60) of the same molecule?
Answer: The TGI was 2.29 µM.

Question: And the CC50 (BT-549 (breast cancer); Homo sapiens, BT-549, read-out: LC50)?
Answer: Its CC50 is 5.62 µM.

Question: And the GI50 (BT-549 (breast cancer); Homo sapiens, BT-549, NCI-60)?
Answer: Its GI50 is 870 nM.

Question: And the TGI (COLO-205 (colon cancer); COLO-205, NCI-60)?
Answer: Its TGI is 3.98 µM.

Question: And the CC50 (COLO-205 (colon cancer); Homo sapiens, COLO 205, read-out: LC50)?
Answer: Its CC50 is 9.33 µM.

Question: What about the GI50 (COLO-205 (colon cancer); Homo sapiens, COLO-205, NCI-60) of the same molecule?
Answer: Its GI50 is 1660 nM.

Question: What about the TGI (HCT-116 (colon cancer); HCT-116, NCI-60) of the same molecule?
Answer: The TGI was 2.75 µM.

Question: And the CC50 (HCT-116 (colon cancer); Homo sapiens, HCT-116, read-out: LC50)?
Answer: The CC50 was 6.03 µM.

Question: And the GI50 (HCT-116 (colon cancer); Homo sapiens, HCT-116, NCI-60)?
Answer: Its GI50 is 1290 nM.

Question: And the CC50 (M14 (melanoma); Homo sapiens, M14, read-out: LC50)?
Answer: Its CC50 is 7.94 µM.

Question: And the GI50 (M14 (melanoma); Homo sapiens, M14, NCI-60)?
Answer: Its GI50 is 1380 nM.

Question: And the TGI (M14 (melanoma); M14, NCI-60)?
Answer: The TGI was 3.31 µM.

Question: What about the CC50 ([3]; Homo sapiens, MDA-MB-231, read-out: LC50) of the same molecule?
Answer: The CC50 was 8.51 µM.

Question: What about the GI50 ([3]; Homo sapiens, MDA-MB-231/ATCC, NCI-60) of the same molecule?
Answer: The GI50 was 1780 nM.

Question: And the TGI ([3]; MDA-MB-231/ATCC, NCI-60)?
Answer: Its TGI is 3.89 µM.

Question: And the CC50 ([4]; Homo sapiens, MDA-MB-468, read-out: LC50)?
Answer: The CC50 was 8.71 µM.

Question: And the GI50 ([4]; Homo sapiens, MDA-MB-468, NCI-60)?
Answer: The GI50 was 1350 nM.

Question: And the TGI ([4]; MDA-MB-468, NCI-60)?
Answer: The TGI was 3.39 µM.

Question: And the GI50 (NCI-60 cell line panel; average for the 60 cell lines)?
Answer: Its GI50 is 1490 nM.

Question: And the “average TGI” value (NCI-60 cell line panel; average for the 60 cell lines)?
Answer: The value was 9.17 µM.

Question: What about the LC50 (NCI-60 cell line panel; read-out: LC50 values against 10 of the NCI60 cancer cell lines) of the same molecule?
Answer: Its LC50 is 4.27 to 9.33 µM.

Question: What about the CC50 ([5]; OVACAR3, read-out: LC50) of the same molecule?
Answer: Its CC50 is 7.41 µM.

Question: What about the GI50 ([5]; OVACAR3, OVACAR-3, NCI-60) of the same molecule?
Answer: The GI50 was 1380 nM.

Question: What about the TGI ([5]; OVACAR-3, NCI-60) of the same molecule?
Answer: The TGI was 3.24 µM.

Question: What about the GI50 (SF-593 (CNS cancer); SF-593, NCI-60) of the same molecule?
Answer: The GI50 was 1910 nM.

Question: What about the TGI (SF-593 (CNS cancer); SF-593, NCI-60) of the same molecule?
Answer: Its TGI is 4.17 µM.

Question: And the CC50 (SF-593 (CNS cancer); read-out: LC50)?
Answer: The CC50 was 9.33 µM.

Question: And the CC50 (SK-MEL-5 (melanoma); Homo sapiens, SK-MEL-5, read-out: LC50)?
Answer: Its CC50 is 4.27 µM.

Question: What about the GI50 (SK-MEL-5 (melanoma); Homo sapiens, SK-MEL-5, NCI-60) of the same molecule?
Answer: The GI50 was 560 nM.

Question: And the TGI (SK-MEL-5 (melanoma); SK-MEL-5, NCI-60)?
Answer: Its TGI is 1.78 µM.

Question: And the LC50 (concentration killing 50% of cells) (UO-31 (renal cancer); Homo sapiens, UO-31, read-out: LC50)?
Answer: The LC50 (concentration killing 50% of cells) was 9.77 µM.

Question: And the GI50 (UO-31 (renal cancer); Homo sapiens, UO-31, NCI-60)?
Answer: The GI50 was 1740 nM.

Question: What about the TGI (UO-31 (renal cancer); UO-31, NCI-60) of the same molecule?
Answer: Its TGI is 4.07 µM.
